In general, inhibition refers to the relative decrease from the control value, in per cent. As usually defined, the pIC50 is the negative decadic logarithm of the IC50, by convention in mol/L. A lower pIC50 goes with a large IC50.

One data set deals with T47D cell. Kind of data set: T47D cell growth, % inhibition. In kind it is cell-based. Conditions: Homo sapiens.
In a further data set the target is T1, STS (Homo sapiens, UniProt P08842).
T1 sequence (P08842 22-583): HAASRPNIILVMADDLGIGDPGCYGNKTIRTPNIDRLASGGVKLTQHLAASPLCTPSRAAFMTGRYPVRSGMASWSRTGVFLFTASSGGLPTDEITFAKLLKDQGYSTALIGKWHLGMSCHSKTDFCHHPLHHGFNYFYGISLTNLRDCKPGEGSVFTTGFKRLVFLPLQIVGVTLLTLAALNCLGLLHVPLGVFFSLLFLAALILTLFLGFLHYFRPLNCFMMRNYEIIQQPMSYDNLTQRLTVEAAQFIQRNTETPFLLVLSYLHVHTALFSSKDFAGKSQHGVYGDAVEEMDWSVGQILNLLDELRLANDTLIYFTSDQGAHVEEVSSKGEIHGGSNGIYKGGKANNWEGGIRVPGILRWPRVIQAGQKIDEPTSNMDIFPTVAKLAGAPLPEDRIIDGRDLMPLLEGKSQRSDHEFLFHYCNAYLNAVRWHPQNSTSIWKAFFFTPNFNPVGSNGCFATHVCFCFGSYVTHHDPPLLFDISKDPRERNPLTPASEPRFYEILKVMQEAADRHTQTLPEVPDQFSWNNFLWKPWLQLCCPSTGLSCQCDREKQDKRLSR
Kind of data set: Plate assay, % inhibition.

In the next data set the target is T2, steroid sulphatase (Homo sapiens, UniProt P08842).
T2 construct: Sulphatase-positive human placenta from normal term pregnancies are thoroughly minced with scissors; from tissue; host or cells: human term placenta (2000 g supernatant / microsomes)
Description: Inhibition of steroid sulphatase activity in placental microsomes (Protocol 2). In kind it is biochemical.

Another data set concerns T47D cells. Kind of data set: IC50 in T47D cells (table footnote). It is filed as cell-based. Conditions: Homo sapiens. How it is done:
The STS inhibition provided by the compounds was determined in accordance with a plate assay and the Protocols set out herein.

The conditions of data set [1]: in vivo; cited from earlier work.
For data set [2] the following is noted: rats; cited from earlier work.
For data set [3] the following is noted: rats, higher than that of estradiol; cited from earlier work.
A further data set deals with T3, E1-STS enzyme (Homo sapiens, UniProt P08842).
T3 sequence (P08842 22-583): T1 sequence (P08842 22-583)
Conditions: cited from earlier work.

[4] abbreviates: read-out: Plate assay % inhibition.
The mark [5] stands for this setting: read-out: Placental Microsomes, % inhibition.

pIC50: −log10 of the molar value. Where two headings read alike, the source gives them in different places.

Description for steroid sulphatase: Inhibition of Steroid Sulphatase Activity in Placental Microsomes
Sulphatase-positive human placenta from normal term pregnancies are thoroughly minced with scissors and washed once with cold phosphate buffer (pH 7.4, 50 mM) then re-suspended in cold phosphate buffer (5 ml/g tissue). Homogenisation is accomplished with an Ultra-Turrax homogeniser, using three 10 second bursts separated by 2 minute cooling periods in ice. Nuclei and cell debris are removed by centrifuging (4° C.) at 2000 g for 30 minutes and portions (2 ml) of the supernatant are stored at 20° C.
Incubations (1 ml) are carried out using a protein concentration of 100 mg/ml, substrate concentration of 20 mM [6,7–3H]oestrone-3-sulphate (specific activity 60 Ci/mmol from New England Nuclear, Boston, Mass., U.S.A.) and an incubation time of 20 minutes at 37° C. If necessary eight concentrations of compounds are employed: 0 (i.e. control); 0.05 mM; 0.1 mM; 0.2 mM; 0.4 mM; 0.6 mM; 0.8 mM; 1.0 mM. After incubation each sample is cooled and the medium (1 ml) was pipetted into separate tubes containing [14C]oestrone (7×10^3 dpm) (specific activity 97 Ci/mmol from Amersham International Radiochemical Centre, Amersham, U.K.). The mixture is shaken thoroughly for 30 seconds with toluene (5 ml). […] A portion (2 ml) of the organic phase was removed, evaporated and the 3H and 14C content of the residue determined by scintillation spectrometry. The mass of oestrone-3-sulphate hydrolysed is calculated from the 3H counts obtained (corrected for the volumes of the medium and organic phase used, and for recovery of [14C]oestrone added) and the specific activity of the substrate.

`CC1=C2CCC3c4ccc(OS(N)(=O)=O)cc4CCC3C2CC1` (stereo not drawn) [BLE00086] registered an inhibition at 10 µM in the data set with T47D cell of 93.2%. For the same compound, at STS (setting [4]), the inhibition at 0.1 µM is 8%, the inhibition at 1 µM is 3% and the inhibition at 10 µM came out at 14%.
With `CSc1cc2c(cc1OS(N)(=O)=O)CCC1C2CCC2(C)C(=O)CCC12` (stereo not drawn) [Compound 7], at steroid sulphatase (10 nM, read-out: Placental Microsomes, % inhibition), the inhibition at 0.01 µM came to 5.4%. The compound also had a pIC50 in the data set on T47D cells of 8.60. In addition, the inhibition at 0.1 µM on STS (0.1 μM, read-out: Plate Assay, % inhibition) worked out at 3%. The inhibition at 1 µM at STS (1 μM, read-out: Plate Assay, % inhibition) was 53%. Further, the inhibition at 10 µM at STS (10 μM, read-out: Plate Assay, % inhibition) came out at 55%.
With `C[C@]12CC[C@@H]3c4ccc(OS(=O)(=O)O)cc4CC[C@H]3[C@@H]1CCC2=O` [Compound E1S, oestrone sulphate], the half-life in blood in data set [1] was 10 to 12 h.
On steroid sulphatase, `CC12CCC3c4ccc(OS(N)(=O)=O)cc4CCC3C1CCC2=O` (stereo not drawn) [EMATE, oestrone-3-sulphamate, reference compound] showed a pIC50 of 7.74. For the same compound, the “Placental Microsomes % inhibition” value at steroid sulphatase (human) was 97.8%. Moreover, at steroid sulphatase (setting [5]), the inhibition at 0.01 µM was determined as 27.3%, the inhibition at 0.1 µM is 85.1% and the inhibition at 10 µM is 99.5%. In addition, in data set [2], the memory effect result was “memory enhancing effect”. Besides, in data set [3], the “oral uterotrophic activity relative to estradiol” value is recorded as 100 times. The “mode of E1-STS inhibition” value at E1-STS enzyme is “time- and concentration-dependent manner”.

The record behind these values is patent publication US7067503B2, “17-aryl linker derivatised estrogen 3-sulphamates as inhibitors of steroid sulphatase” (priority 2000, dated 2006).
